Paper PMC5762315, “Inhibition of polo-like kinase 4 (PLK4): a new therapeutic option for rhabdoid tumors and pediatric medulloblastoma” (Oncotarget, 2017)
Several values for one entry are separate records, joined by “and”; a condition that tells them apart may be missing. Identical values can stand only once.

What was measured:
Assay in all cases: biochemical
Format in all cases: biochemical
various kinases [1] = target: various kinases (Homo sapiens, UniProt Q13554); settings: CAMK2B (CaMKII beta)
various kinases [2] = target: various kinases (Homo sapiens, UniProt P08581, Y1235D); settings: MET (cMet) Y1235D
various kinases [3] = target: various kinases (Homo sapiens, UniProt P00519, E255K); settings: ABL1 E255K
various kinases [4] = target: various kinases (Homo sapiens, UniProt P68400); settings: CSNK2A1 (CK2 alpha 1)
various kinases [5] = target: T1, various kinases (Homo sapiens, UniProt Q06418); settings: kinase TYRO3 (RSE); ZLYTE
T1 sequence (Q06418 41-890): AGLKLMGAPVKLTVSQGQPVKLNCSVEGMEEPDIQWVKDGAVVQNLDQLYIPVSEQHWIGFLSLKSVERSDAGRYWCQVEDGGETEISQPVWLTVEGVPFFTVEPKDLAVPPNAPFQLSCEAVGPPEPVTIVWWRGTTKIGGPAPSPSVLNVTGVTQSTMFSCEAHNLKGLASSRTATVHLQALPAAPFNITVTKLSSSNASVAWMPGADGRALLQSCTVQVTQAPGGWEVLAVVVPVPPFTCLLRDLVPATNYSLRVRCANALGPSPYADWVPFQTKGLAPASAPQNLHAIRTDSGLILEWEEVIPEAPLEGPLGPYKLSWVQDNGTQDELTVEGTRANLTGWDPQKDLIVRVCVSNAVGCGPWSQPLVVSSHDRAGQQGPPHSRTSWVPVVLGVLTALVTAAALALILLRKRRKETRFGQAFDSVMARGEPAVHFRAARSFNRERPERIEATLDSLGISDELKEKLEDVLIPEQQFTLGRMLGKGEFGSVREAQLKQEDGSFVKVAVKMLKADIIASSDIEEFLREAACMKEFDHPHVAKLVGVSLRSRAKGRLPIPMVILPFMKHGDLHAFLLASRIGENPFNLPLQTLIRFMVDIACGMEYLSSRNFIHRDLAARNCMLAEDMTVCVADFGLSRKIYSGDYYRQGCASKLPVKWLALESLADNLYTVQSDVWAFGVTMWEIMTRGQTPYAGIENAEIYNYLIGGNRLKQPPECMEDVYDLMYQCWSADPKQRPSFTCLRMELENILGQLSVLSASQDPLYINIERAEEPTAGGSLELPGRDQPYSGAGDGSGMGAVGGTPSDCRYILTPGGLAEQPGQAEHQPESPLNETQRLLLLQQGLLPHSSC

various kinases [6] = target: various kinases (Homo sapiens, UniProt Q9P0L2); settings: MARK1 (MARK)
various kinases [7] = target: various kinases (Homo sapiens, UniProt Q9UBS0); settings: kinase RPS6KB2 (p70S6Kb); ZLYTE
various kinases [8] = target: T2, various kinases (Homo sapiens, UniProt Q9UL54); settings: kinase TAOK2 (TAO1); ZLYTE
T2 sequence (Q9UL54 1-1235): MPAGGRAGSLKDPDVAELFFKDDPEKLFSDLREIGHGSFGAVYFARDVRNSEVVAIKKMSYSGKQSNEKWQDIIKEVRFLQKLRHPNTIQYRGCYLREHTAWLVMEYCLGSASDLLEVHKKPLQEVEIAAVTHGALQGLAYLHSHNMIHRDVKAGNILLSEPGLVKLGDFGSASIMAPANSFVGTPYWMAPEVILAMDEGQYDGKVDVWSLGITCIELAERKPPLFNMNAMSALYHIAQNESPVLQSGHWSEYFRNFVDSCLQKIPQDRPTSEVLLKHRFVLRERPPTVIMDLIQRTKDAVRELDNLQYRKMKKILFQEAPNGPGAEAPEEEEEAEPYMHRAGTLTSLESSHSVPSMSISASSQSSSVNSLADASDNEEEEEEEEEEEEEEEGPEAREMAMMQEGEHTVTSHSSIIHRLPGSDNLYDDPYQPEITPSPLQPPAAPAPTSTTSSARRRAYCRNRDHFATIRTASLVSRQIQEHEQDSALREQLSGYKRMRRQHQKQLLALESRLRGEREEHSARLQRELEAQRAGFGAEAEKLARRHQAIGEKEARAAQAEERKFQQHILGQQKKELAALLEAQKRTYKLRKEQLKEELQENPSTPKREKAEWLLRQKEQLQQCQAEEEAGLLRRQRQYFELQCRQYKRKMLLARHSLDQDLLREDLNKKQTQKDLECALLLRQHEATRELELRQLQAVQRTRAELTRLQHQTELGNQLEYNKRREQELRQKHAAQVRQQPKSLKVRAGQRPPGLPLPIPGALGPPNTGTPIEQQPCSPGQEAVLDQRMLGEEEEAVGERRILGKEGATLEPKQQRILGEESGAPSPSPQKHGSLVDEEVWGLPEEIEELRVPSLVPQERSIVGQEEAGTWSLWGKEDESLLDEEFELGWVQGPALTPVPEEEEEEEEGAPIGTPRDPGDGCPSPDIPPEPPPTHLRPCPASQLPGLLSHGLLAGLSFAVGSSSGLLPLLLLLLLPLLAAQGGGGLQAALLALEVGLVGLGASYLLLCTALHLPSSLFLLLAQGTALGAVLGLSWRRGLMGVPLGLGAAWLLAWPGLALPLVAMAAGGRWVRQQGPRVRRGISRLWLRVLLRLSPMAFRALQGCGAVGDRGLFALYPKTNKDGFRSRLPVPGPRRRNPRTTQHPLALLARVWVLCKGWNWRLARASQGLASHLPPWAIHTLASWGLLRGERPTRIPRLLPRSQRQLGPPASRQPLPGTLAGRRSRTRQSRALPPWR

Chain of various kinases (Homo sapiens, UniProt Q9UBS0) (Q9UBS0 whole entry): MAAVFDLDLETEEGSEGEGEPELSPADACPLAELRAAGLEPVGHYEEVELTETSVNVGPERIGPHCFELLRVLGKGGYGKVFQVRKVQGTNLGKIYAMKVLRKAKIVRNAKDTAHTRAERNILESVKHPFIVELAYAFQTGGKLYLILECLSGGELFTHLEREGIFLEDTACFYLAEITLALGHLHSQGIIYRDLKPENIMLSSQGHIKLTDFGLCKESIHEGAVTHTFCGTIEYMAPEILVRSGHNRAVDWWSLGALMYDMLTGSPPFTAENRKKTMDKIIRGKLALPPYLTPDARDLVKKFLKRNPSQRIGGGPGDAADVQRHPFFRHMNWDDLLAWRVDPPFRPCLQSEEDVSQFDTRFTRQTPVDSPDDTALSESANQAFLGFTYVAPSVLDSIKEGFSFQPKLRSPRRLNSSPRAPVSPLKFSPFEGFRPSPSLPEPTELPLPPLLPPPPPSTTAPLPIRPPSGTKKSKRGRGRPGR
Chain of various kinases (Homo sapiens, UniProt P00519, E255K) (P00519 whole entry E255K): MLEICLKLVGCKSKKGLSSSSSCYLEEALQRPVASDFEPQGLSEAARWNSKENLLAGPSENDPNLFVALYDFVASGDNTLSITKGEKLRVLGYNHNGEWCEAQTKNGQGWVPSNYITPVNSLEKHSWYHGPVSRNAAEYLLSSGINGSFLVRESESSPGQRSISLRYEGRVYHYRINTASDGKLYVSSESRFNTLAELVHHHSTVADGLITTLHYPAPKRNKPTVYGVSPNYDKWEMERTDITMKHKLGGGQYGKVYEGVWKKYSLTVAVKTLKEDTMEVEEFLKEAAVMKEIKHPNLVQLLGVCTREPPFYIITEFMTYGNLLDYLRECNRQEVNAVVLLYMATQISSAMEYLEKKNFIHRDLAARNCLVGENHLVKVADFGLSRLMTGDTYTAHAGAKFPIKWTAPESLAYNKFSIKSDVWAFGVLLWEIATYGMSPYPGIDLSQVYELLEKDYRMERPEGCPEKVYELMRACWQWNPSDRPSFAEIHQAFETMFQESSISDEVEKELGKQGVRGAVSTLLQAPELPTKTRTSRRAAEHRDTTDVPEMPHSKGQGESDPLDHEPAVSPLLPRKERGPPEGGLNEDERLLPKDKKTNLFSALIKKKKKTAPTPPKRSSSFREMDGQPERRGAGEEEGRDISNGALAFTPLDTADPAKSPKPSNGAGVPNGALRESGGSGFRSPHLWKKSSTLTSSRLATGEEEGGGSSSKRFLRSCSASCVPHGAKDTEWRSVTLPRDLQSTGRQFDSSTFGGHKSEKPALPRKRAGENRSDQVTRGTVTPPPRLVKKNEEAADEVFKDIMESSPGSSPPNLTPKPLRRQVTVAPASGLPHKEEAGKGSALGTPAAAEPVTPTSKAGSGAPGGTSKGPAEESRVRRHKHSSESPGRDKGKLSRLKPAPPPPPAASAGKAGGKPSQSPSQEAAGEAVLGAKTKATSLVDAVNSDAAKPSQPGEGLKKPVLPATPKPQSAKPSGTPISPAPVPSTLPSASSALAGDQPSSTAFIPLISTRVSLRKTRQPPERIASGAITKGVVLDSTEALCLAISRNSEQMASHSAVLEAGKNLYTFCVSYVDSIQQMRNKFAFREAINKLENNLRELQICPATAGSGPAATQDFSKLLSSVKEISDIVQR
Chain of various kinases (Homo sapiens, UniProt Q13554) (Q13554 whole entry): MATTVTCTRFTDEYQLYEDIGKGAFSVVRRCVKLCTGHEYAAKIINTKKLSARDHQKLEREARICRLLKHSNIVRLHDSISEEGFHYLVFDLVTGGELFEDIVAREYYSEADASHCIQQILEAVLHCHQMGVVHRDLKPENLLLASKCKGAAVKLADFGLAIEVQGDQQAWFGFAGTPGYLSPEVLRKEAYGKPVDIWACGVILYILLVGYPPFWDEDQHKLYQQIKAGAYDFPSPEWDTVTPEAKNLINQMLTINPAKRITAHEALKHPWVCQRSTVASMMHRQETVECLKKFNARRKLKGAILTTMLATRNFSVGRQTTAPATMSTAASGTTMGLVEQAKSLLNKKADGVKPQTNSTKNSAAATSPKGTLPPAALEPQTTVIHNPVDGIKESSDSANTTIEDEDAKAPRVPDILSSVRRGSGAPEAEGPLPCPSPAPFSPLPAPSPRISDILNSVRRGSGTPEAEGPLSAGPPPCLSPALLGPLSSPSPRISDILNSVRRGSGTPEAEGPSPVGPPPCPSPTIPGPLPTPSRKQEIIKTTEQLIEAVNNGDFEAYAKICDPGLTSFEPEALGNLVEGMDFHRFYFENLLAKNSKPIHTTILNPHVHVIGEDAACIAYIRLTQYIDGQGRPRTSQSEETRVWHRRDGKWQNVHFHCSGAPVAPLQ
Chain of various kinases (Homo sapiens, UniProt P08581, Y1235D) (P08581 25-1390 Y1235D): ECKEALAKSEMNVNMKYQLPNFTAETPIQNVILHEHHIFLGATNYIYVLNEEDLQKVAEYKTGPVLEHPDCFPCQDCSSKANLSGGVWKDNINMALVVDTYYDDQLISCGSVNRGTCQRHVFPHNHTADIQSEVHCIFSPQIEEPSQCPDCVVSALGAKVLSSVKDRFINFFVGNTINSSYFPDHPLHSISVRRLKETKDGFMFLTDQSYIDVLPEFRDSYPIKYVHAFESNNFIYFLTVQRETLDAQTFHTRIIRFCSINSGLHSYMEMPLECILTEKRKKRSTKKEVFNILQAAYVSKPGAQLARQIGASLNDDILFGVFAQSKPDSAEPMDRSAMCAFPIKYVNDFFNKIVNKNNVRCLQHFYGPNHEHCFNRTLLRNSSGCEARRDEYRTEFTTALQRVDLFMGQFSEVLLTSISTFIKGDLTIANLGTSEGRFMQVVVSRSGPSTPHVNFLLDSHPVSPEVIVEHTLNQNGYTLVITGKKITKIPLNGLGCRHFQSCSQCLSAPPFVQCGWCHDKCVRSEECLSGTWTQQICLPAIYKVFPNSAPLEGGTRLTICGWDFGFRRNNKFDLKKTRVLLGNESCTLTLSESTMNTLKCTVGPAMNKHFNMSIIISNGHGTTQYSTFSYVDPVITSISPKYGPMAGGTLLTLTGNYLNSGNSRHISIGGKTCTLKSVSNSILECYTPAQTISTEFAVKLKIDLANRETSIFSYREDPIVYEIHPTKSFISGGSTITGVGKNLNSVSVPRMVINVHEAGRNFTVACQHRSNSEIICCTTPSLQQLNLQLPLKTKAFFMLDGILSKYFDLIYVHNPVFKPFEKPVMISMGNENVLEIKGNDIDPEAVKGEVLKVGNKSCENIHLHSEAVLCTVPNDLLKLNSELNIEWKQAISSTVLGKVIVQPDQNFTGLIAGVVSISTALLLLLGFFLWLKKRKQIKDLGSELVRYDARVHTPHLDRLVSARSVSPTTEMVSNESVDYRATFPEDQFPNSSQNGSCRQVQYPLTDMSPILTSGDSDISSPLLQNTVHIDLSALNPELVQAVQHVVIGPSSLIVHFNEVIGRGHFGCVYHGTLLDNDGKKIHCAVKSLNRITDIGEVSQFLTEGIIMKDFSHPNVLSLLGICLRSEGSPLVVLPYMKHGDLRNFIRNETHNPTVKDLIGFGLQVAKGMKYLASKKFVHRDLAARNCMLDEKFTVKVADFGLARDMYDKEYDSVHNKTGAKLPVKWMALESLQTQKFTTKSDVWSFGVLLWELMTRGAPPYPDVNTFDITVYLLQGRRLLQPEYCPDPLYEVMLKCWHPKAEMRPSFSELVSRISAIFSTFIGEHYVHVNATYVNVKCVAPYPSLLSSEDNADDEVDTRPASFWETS
Chain of various kinases (Homo sapiens, UniProt Q9P0L2) (Q9P0L2 whole entry): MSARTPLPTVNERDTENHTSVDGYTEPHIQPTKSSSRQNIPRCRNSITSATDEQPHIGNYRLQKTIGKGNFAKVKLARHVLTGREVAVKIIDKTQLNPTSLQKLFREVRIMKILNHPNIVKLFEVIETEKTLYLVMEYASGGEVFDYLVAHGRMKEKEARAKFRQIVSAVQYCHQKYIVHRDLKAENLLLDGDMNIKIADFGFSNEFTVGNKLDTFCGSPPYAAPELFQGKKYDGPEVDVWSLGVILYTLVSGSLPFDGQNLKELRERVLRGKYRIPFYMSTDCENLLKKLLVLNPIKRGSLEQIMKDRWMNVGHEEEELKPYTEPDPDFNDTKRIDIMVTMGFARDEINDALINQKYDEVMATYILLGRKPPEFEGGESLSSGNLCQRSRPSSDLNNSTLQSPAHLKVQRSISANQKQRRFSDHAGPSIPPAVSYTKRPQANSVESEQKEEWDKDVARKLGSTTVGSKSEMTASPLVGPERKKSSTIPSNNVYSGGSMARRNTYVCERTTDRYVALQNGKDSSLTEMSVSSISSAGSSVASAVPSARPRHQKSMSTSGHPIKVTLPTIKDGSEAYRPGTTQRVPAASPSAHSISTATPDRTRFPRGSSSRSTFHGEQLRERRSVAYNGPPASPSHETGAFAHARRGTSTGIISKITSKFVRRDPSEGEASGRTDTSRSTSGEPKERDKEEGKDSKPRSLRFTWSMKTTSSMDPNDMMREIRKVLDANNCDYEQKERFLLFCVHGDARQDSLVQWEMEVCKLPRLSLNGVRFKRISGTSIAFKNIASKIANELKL
Chain of various kinases (Homo sapiens, UniProt P68400) (P68400 whole entry): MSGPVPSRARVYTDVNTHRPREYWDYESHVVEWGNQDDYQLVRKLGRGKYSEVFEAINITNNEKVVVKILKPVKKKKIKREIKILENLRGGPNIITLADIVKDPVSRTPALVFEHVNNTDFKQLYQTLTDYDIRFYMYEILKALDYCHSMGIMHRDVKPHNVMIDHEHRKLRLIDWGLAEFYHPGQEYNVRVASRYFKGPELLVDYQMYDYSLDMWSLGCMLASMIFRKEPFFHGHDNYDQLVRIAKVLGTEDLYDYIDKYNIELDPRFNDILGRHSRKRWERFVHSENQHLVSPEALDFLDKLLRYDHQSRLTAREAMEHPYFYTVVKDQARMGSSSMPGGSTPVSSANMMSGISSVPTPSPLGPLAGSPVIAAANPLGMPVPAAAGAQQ

Structure (SMILES): COc1ccc2c(c1)[C@]1(C[C@H]1c1ccc3c(/C=C/c4ccc(CN5C[C@@H](C)O[C@@H](C)C5)cc4)n[nH]c3c1)C(=O)N2 [CFI-400945]
- % Inhibition (various kinases [1]): 13% and 14%
- % Inhibition (various kinases [2]): 5% and 6%
- % Inhibition (various kinases [3]): 39% and 36%
- % Inhibition (various kinases [4]): 9% and 4%
- % Inhibition Average (various kinases [5]): 10%
- % Inhibition Duplicate #1 (various kinases [5]): 10%
- % Inhibition Duplicate #2 (various kinases [5]): 11%
- % Inhibition (various kinases [6]): 25% and 24%
- % Inhibition Average (various kinases [7]): 5%
- % Inhibition Duplicate #1 (various kinases [7]): 5%
- % Inhibition Duplicate #2 (various kinases [7]): 4%
- % Inhibition Average (various kinases [8]): 4%
- % Inhibition Duplicate #1 (various kinases [8]): 3%
- % Inhibition Duplicate #2 (various kinases [8]): 5%
